Reference: patent US11123337B2, “4-methylsulfonyl-substituted piperidine urea compounds” (MYOKARDIA, INC., priority 2015, dated 2021)

Target: bovine cardiac myosin (Bos taurus, UniProt Q9BE39)
Assay: Myosin activation assay (PK/LDH-coupled ATPase, bovine cardiac myofibrils)
Type: biochemical
Conditions: AC20 = concentration at which total response is increased by twenty percent
Summary of the method: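 Skinned bovine cardiac myofibrils (1 mg/mL) in PIPES/MgCl2 buffer pH 6.8 at free Ca2+ giving ~50% (pCa ~6) or <5% (pCa 10) activation, with 50 μM ATP and 3.3% DMSO. ATPase rate from NADH absorbance at 340 nm (PK/LDH coupling) over 15 min at ambient temperature. AC20/AC50 from a four-parameter fit of DMSO-normalised rates.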

Sequence of bovine cardiac myosin (Q9BE39 whole entry): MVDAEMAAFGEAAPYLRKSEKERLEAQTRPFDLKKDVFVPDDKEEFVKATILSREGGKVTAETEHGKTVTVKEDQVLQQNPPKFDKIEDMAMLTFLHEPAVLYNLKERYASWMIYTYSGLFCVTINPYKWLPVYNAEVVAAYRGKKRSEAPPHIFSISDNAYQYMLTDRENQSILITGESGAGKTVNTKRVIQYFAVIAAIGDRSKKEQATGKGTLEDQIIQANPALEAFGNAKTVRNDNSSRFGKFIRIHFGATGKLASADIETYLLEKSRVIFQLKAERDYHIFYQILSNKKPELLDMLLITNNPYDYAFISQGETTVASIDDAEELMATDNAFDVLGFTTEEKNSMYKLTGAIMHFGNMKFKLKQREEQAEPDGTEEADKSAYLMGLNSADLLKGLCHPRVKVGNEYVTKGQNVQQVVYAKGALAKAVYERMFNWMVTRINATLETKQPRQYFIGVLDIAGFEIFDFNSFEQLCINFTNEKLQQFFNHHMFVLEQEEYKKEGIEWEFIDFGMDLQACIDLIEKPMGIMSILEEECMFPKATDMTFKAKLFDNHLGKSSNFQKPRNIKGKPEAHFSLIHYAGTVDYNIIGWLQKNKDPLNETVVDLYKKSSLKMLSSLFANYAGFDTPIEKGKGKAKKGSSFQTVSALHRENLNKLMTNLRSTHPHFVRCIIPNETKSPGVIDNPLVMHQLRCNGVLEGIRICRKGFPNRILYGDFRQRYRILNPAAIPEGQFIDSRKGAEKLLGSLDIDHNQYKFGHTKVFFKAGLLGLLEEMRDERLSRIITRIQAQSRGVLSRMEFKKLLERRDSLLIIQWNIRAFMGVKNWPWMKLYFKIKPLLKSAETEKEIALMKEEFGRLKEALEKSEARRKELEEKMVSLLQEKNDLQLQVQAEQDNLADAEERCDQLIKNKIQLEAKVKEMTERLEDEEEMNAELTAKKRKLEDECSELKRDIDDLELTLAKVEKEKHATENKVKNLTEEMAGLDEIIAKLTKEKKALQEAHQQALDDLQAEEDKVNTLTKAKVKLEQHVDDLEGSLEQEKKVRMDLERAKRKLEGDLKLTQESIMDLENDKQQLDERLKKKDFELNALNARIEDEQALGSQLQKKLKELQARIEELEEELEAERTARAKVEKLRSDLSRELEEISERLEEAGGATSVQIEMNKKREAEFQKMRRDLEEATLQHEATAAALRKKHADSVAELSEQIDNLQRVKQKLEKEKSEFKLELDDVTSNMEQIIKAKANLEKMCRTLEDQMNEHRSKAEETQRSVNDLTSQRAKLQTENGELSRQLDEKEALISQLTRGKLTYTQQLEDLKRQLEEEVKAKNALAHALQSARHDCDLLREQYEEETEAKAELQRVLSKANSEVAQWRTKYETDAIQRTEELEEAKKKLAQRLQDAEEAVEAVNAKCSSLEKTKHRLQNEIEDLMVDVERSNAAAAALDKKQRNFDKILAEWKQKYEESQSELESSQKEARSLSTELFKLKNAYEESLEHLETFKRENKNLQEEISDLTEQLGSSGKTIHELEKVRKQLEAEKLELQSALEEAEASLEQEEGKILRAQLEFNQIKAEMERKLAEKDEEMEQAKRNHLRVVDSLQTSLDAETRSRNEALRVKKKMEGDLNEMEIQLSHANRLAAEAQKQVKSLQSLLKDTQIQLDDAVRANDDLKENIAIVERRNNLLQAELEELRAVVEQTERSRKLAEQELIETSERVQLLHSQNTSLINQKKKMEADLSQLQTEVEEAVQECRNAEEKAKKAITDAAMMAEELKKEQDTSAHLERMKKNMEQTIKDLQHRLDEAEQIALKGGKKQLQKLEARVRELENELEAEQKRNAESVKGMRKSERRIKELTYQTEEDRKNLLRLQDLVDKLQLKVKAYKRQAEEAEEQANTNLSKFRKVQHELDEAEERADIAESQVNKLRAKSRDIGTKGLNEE
Sequence of bovine cardiac myosin (P85100 whole entry partner): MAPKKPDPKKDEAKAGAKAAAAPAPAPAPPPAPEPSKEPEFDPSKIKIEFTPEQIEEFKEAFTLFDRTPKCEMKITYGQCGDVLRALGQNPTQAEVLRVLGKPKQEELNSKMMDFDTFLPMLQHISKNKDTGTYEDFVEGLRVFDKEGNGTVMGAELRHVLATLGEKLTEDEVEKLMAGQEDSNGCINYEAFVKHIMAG
Sequence of bovine cardiac myosin (Q3SZE5 whole entry partner): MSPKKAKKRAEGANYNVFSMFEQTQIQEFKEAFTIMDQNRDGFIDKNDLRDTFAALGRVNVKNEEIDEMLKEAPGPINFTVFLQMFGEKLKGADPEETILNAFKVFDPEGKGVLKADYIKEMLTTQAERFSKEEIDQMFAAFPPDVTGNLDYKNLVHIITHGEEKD

## O=C(Nc1ccnnc1)N1CCC(F)(C2(S(=O)(=O)c3cccc(F)c3)CCC2)CC1 [Compound 166, 4-fluoro-4-(1-((3-fluorophenyl)sulfonyl)cyclobutyl)-N-(pyridazin-4-yl)piperidine-1-carboxamide]
  Myosin Activation (AC20): ++ (++ represents myosin activation value AC20 from 2 μM-5 μM)

## CC(F)(C1CCN(C(=O)Nc2ccnnc2)CC1)S(=O)(=O)c1cccc(Cl)c1 (stereo not shown) [Compound 264, 4-(1-((3-chlorophenyl)sulfonyl)-1-fluoroethyl)-N-(pyridazin-4-yl)piperidine-1-carboxamide]
  Myosin Activation (AC20): +++ (+++ represents myosin activation value AC20 < 2 μM)

## N#Cc1ccc(S(=O)(=O)C2(C3CCN(C(=O)Nc4ccnnc4)CC3)CCC2)cc1 [Compound 164, 4-(1-((4-cyanophenyl)sulfonyl)cyclobutyl)-N-(pyridazin-4-yl)piperidine-1-carboxamide]
  Myosin Activation (AC20): +++ (+++ represents myosin activation value AC20 < 2 μM)

## Cn1ncc2c(S(=O)(=O)C(F)(F)C3CCN(C(=O)Nc4ccnnc4)CC3)cccc21 [Compound 66, 4-(difluoro((1-methyl-1H-indazol-4-yl)sulfonyl)methyl)-N-(pyridazin-4-yl)piperidine-1-carboxamide]
  Myosin Activation (AC20): ++ (++ represents myosin activation value AC20 from 2 μM-5 μM)

## CCn1nccc1S(=O)(=O)C(C)(C)C1CCN(C(=O)Nc2ccncc2)CC1 [Compound 184, 4-(2-((1-ethyl-1H-pyrazol-5-yl)sulfonyl)propan-2-yl)-N-(pyridin-4-yl)piperidine-1-carboxamide]
  Myosin Activation (AC20): ++ (++ represents myosin activation value AC20 from 2 μM-5 μM)

## Cn1nccc1S(=O)(=O)C(C)(F)C1CCN(C(=O)Nc2ccon2)CC1 (stereo not shown) [Compound 280, 4-(1-fluoro-1-((1-methyl-1H-pyrazol-5-yl)sulfonyl)ethyl)-N-(isoxazol-3-yl)piperidine-1-carboxamide]
  Myosin Activation (AC20): + (+ represents myosin activation value AC20 > 5 μM)

## O=C(Nc1ccncc1)N1CCC(C2(S(=O)(=O)c3cccc(F)c3)CC2)CC1 [Compound 35, 4-(1-((3-fluorophenyl)sulfonyl)cyclopropyl)-N-(pyridin-4-yl)piperidine-1-carboxamide]
  Myosin Activation (AC20): +++ (+++ represents myosin activation value AC20 < 2 μM)

## Cn1nccc1S(=O)(=O)C(C)(C)C1CCN(C(=O)Nc2ccc(F)nc2)CC1 [Compound 124, N-(6-fluoropyridin-3-yl)-4-(2-((1-methyl-1H-pyrazol-5-yl)sulfonyl)propan-2-yl)piperidine-1-carboxamide]
  Myosin Activation (AC20): + (+ represents myosin activation value AC20 > 5 μM)

## Cc1ccccc1S(=O)(=O)C1(C2CCN(C(=O)Nc3ccncc3)CC2)CC1 [Compound 202, N-(pyridin-4-yl)-4-(1-(o-tolylsulfonyl)cyclopropyl)piperidine-1-carboxamide]
  Myosin Activation (AC20): +++ (+++ represents myosin activation value AC20 < 2 μM)

## Cn1nc(C(F)(F)F)cc1S(=O)(=O)C(C)(F)C1CCN(C(=O)Nc2ccnc(F)c2)CC1 (stereo not shown) [Compound 251, 4-(1-fluoro-1-((1-methyl-3-(trifluoromethyl)-1H-pyrazol-5-yl)sulfonyl)ethyl)-N-(2-fluoropyridin-4-yl)piperidine-1-carboxamide]
  Myosin Activation (AC20): ++ (++ represents myosin activation value AC20 from 2 μM-5 μM)

## O=C(Nc1ccns1)N1CCC(C2(S(=O)(=O)c3ccc(OC(F)(F)F)cc3)CC2)CC1 [Compound 207, N-(isothiazol-5-yl)-4-(1-((4-(trifluoromethoxy)phenyl)sulfonyl)cyclopropyl)piperidine-1-carboxamide]
  Myosin Activation (AC20): +++ (+++ represents myosin activation value AC20 < 2 μM)

## Cn1nccc1S(=O)(=O)C(C)(F)C1CCN(C(=O)Nc2ccnnc2)CC1 (stereo not shown) [Compound 271, 4-(1-fluoro-1-((1-methyl-1H-pyrazol-5-yl)sulfonyl)ethyl)-N-(pyridazin-4-yl)piperidine-1-carboxamide]
  Myosin Activation (AC20): ++ (++ represents myosin activation value AC20 from 2 μM-5 μM)

## Cc1cc(S(=O)(=O)C(F)(F)C2CCN(C(=O)Nc3ccnnc3)CC2)n(C2CC2)n1 [Compound 90, 4-(((1-cyclopropyl-3-methyl-1H-pyrazol-5-yl)sulfonyl)difluoromethyl)-N-(pyridazin-4-yl)piperidine-1-carboxamide]
  Myosin Activation (AC20): + (+ represents myosin activation value AC20 > 5 μM)

## C[C@H](O)c1cc(NC(=O)N2CCC([C@@](C)(F)S(=O)(=O)c3cn(C)nc3C(F)F)CC2)ccn1 [Compound 29, 4-((S)-1-((3-(Difluoromethyl)-1-methyl-1H-pyrazol-4-yl)sulfonyl)-1-fluoroethyl)-N-(2-((S)-1-hydroxyethyl)pyridin-4-yl)piperidine-1-carboxamide]
  Myosin Activation (AC20): + (+ represents myosin activation value AC20 > 5 μM)

## Cn1cc(S(=O)(=O)C(C)(C)C2CCN(C(=O)Nc3nnco3)CC2)c(C(F)F)n1 [Compound 145, 4-(2-((3-(difluoromethyl)-1-methyl-1H-pyrazol-4-yl)sulfonyl)propan-2-yl)-N-(1,3,4-oxadiazol-2-yl)piperidine-1-carboxamide]
  Myosin Activation (AC20): + (+ represents myosin activation value AC20 > 5 μM)

## Cn1nccc1S(=O)(=O)C(C)(C)C1CCN(C(=O)Nc2cnns2)CC1 [Compound 193, 4-(2-((1-methyl-1H-pyrazol-5-yl)sulfonyl)propan-2-yl)-N-(1,2,3-thiadiazol-5-yl)piperidine-1-carboxamide]
  Myosin Activation (AC20): +++ (+++ represents myosin activation value AC20 < 2 μM)

## CC(C)(C1CCN(C(=O)Nc2cc[nH]n2)CC1)S(=O)(=O)c1cccc(F)c1 [Compound 147, 4-(2-((3-fluorophenyl)sulfonyl)propan-2-yl)-N-(1H-pyrazol-3-yl)piperidine-1-carboxamide]
  Myosin Activation (AC20): + (+ represents myosin activation value AC20 > 5 μM)

## Cn1cc(S(=O)(=O)C(C)(F)C2CCN(C(=O)Nc3ccnc(F)c3)CC2)c(C(F)(F)F)n1 (stereo not shown) [Compound 245, 4-(1-fluoro-1-((1-methyl-3-(trifluoromethyl)-1H-pyrazol-4-yl)sulfonyl)ethyl)-N-(2-fluoropyridin-4-yl)piperidine-1-carboxamide]
  Myosin Activation (AC20): ++ (++ represents myosin activation value AC20 from 2 μM-5 μM)

## CC(C)(C1CCN(C(=O)Nc2ccns2)CC1)S(=O)(=O)c1cccc(F)c1 [Compound 218, 4-(2-((3-fluorophenyl)sulfonyl)propan-2-yl)-N-(isothiazol-5-yl)piperidine-1-carboxamide]
  Myosin Activation (AC20): ++ (++ represents myosin activation value AC20 from 2 μM-5 μM)

## CC(C)(C1CCN(C(=O)Nc2cnccn2)CC1)S(=O)(=O)c1cccc(F)c1 [Compound 131, 4-(2-((3-fluorophenyl)sulfonyl)propan-2-yl)-N-(pyrazin-2-yl)piperidine-1-carboxamide]
  Myosin Activation (AC20): + (+ represents myosin activation value AC20 > 5 μM)

## COc1ccccc1S(=O)(=O)C(C)(C)C1CCN(C(=O)Nc2ccncc2)CC1 [Compound 216, 4-(2-((2-methoxyphenyl)sulfonyl)propan-2-yl)-N-(pyridin-4-yl)piperidine-1-carboxamide]
  Myosin Activation (AC20): +++ (+++ represents myosin activation value AC20 < 2 μM)

## Cc1ncc(NC(=O)N2CCC(C(C)(C)S(=O)(=O)c3cn(C)nc3C(F)F)CC2)cn1 [Compound 143, 4-(2-((3-(difluoromethyl)-1-methyl-1H-pyrazol-4-yl)sulfonyl)propan-2-yl)-N-(2-methylpyrimidin-5-yl)piperidine-1-carboxamide]
  Myosin Activation (AC20): + (+ represents myosin activation value AC20 > 5 μM)

## CC(F)(C1CCN(C(=O)Nc2ccnnc2)CC1)S(=O)(=O)c1ccccc1Cl (stereo not shown) [Compound 263, 4-(1-((2-chlorophenyl)sulfonyl)-1-fluoroethyl)-N-(pyridazin-4-yl)piperidine-1-carboxamide]
  Myosin Activation (AC20): +++ (+++ represents myosin activation value AC20 < 2 μM)

## Cn1nccc1S(=O)(=O)C1(C2CCN(C(=O)Nc3ccnnc3)CC2)CCC1 [Compound 174, 4-(1-((1-methyl-1H-pyrazol-5-yl)sulfonyl)cyclobutyl)-N-(pyridazin-4-yl)piperidine-1-carboxamide]
  Myosin Activation (AC20): +++ (+++ represents myosin activation value AC20 < 2 μM)

## Cc1ccc(NC(=O)N2CCC(C(C)(C)S(=O)(=O)c3ccnn3C)CC2)cn1 [Compound 135, 4-(2-((1-methyl-1H-pyrazol-5-yl)sulfonyl)propan-2-yl)-N-(6-methylpyridin-3-yl)piperidine-1-carboxamide]
  Myosin Activation (AC20): + (+ represents myosin activation value AC20 > 5 μM)

## Cn1cnc(S(=O)(=O)C2(C3CCN(C(=O)Nc4ccnnc4)CC3)CCC2)c1 [Compound 173, 4-(1-((1-methyl-1H-imidazol-4-yl)sulfonyl)cyclobutyl)-N-(pyridazin-4-yl)piperidine-1-carboxamide]
  Myosin Activation (AC20): + (+ represents myosin activation value AC20 > 5 μM)

## Cc1ncc(NC(=O)N2CCC(C(C)(C)S(=O)(=O)c3cccc(F)c3)CC2)cn1 [Compound 141, 4-(2-((3-fluorophenyl)sulfonyl)propan-2-yl)-N-(2-methylpyrimidin-5-yl)piperidine-1-carboxamide]
  Myosin Activation (AC20): + (+ represents myosin activation value AC20 > 5 μM)

## O=C(Nc1cncs1)N1CCC(CS(=O)(=O)c2cccc(F)c2)CC1 [Compound 36, 4-(((3-fluorophenyl)sulfonyl)methyl)-N-(thiazol-5-yl)piperidine-1-carboxamide]
  Myosin Activation (AC20): + (+ represents myosin activation value AC20 > 5 μM)
